In data set [1] the target is T1, Peptidylarginine deiminase 4 (PAD4) (Homo sapiens, UniProt Q9UM07).
T1 construct: purchased Cayman 10500
Kind of data set: Assay of enzyme-inhibiting activity (PAD4, FAM-AcH4(1-5) peptide, Caliper detection). The format is biochemical. Conditions: 10 nM PAD4, 5 μM peptide, 0.1 mM Ca2+, pH 8.0. The protocol:
Experimental Example 1: Assay of Enzyme-Inhibiting Activity of Compound
Sample: The compound disclosed herein prepared according to exemplary methods.
Peptidylarginine deiminase 4 (PAD4): Cayman, Cat. No. 10500, Lot. No. 0519694;
Carboxyfluorescein-labeled peptide (Peptide FAM-AcH4 (1-5)): GL Biochem, Cat. No. 0200046, Lot. No. P161110-TL545976;
An appropriate amount of the compound to be assayed was dissolved in DMSO to 10 mM. An appropriate amount of 10 mM mother liquor of the compound to be assayed was diluted to 1.5 mM with DMSO, and the solution was then serially diluted 3-fold with DMSO to give 50× concentrations of gradient compound solutions. Finally, 10-fold dilution was carried out with reaction buffer (an aqueous solution of 100 mM HEPES (2-[4-(2-hydroxyethyl)piperazin-1-yl]ethanesulfonic acid) containing 0.01% v/v Triton, pH 8.0) to give 5× concentrations of gradient compound solutions (150 μM, 50 μM, 16.667 μM, 5.556 μM, 1.852 μM, 0.617 μM, 0.206 μM, 0.069 μM, 0.023 μM, and 0.008 μM).
1) Reaction buffer: aqueous solution of 100 mM HEPES (2-[4-(2-hydroxyethyl)piperazin-1-yl]ethanesulfonic acid) containing 0.01% v/v Triton, pH 8.0;
2) Stop solution: aqueous solution of 100 mM HEPES (2-[4-(2-hydroxyethyl)piperazin-1-yl]ethanesulfonic acid) containing 0.015% w/v Brij-35, 0.2% v/v Coating Reagent (coating solution) #3 (PE, part no. 760050) and 50 mM EDTA, pH 8.0;
3) 2.5× enzyme solution: An appropriate amount of PAD4 was diluted to 2.5× (final concentration: 10 nM) with reaction buffer;
4) 2.5× polypeptide solution: An appropriate amount of carboxyfluorescein -labeled peptide (FAM-AcH4(1-5) peptide) and CaCl2) solution was diluted to 2.5× (the final concentration of polypeptide: 5 μM, the final concentration of Ca^2+: 0.1 mM) with reaction buffer.
5 μL of 5× compound solutions or solvents with different concentrations were added to a 384-well plate, 10 μL of 2.5× enzyme solution was then added, and the plate was incubated at room temperature for 10 min. 10 μL of 2.5× polypeptide solution was then added to each well, and the plate was incubated at 28° C. for a certain period of time. 25 μL of stop solution was added to stop reaction. Caliper was used for detection. The inhibition rate was calculated according to the following formula:
Inhibition percentage=(max−transformation)/(max−min)*100.
“max” denotes DMSO control; and “min” denotes low control.

The nature of data set [2]: Pharmacokinetics (PK) of the compound in rats. The format is in vivo. Conditions: rat, plasma, SD rats; for bioavailability / AUC(0-t) / clearance / Vd / half-life: n = 3; for bioavailability: read-out: F (absolute bioavailability); for clearance: read-out: Cl_obs iv (clearance) (converted); for Vd: read-out: Vz_obs iv (apparent volume of distribution); for Tmax: n = 3, median, read-out: Tmax po (time to maximum plasma concentration). The protocol: Experimental Example 3: Pharmacokinetics (PK) of the Compound in Rats
The test compound was dissolved in a mixture of 5% v/v DMSO+20% v/v (30% v/v solutol (polyethylene glycol-15 hydroxystearate purchased from BASF, batch no. 84773247G0))+75% v/v brine to prepare a solution, which was then administered to SD rats by oral gavage at a dose of 5.0 mg/kg. Blood samples were collected at 15 min, 30 min, 1 h, 2 h, 4 h, 6 h, 8 h and 24 h.
The test compound was dissolved in a mixture of 5% v/v DMSO+20% v/v (30% v/v solutol)+75% v/v brine to prepare a solution, which was administered to SD rats by intravenous bolus at a dose of 1 mg/kg. Blood samples were collected at 5 min, 15 min, 30 min, 1 h, 2 h, 4 h, 6 h, 8 h and 24 h.
The animals were fixed, with tails warmed in a water bath 10 min before each sampling time point. About 100 μL of blood was collected via the tail vein, and the blood samples were collected in anticoagulation tubes containing EDTA-K2. The blood samples were centrifuged at 8,000 rpm for 6 min at 4° C. to give plasma samples within 30 min after collection. The plasma samples were stored in a refrigerator at −80° C. before test.
The sample was taken out from the −80° C. refrigerator, and vortexed for 5 min after naturally thawed at room temperature. 20 μL of plasma sample was pipetted into a 1.5 mL centrifuge tube, and 200 μL of 100 ng/mL internal standard working solution (a solution of tolbutamide in methanol) was added. The resulting mixture was mixed, vortexed for 5 min, and then centrifuged at 12,000 rpm for 5 min. 50 μL of the supernatant was pipetted into a 96-well plate with 150 μL of water per well, and the plate was vortexed for 5 min before LC-MS/MS analysis.
The concentration was calculated by Analyst 1.6.3 from AB Sciex. Parameters such as mean, standard deviation and coefficient of variation (excluding those output directly by Analyst 1.6.3) were calculated by Microsoft Excel. PK parameters were calculated by Pharsight Phoenix 6.1 software NCA (Tmax was in median).

Where [3] appears, read: IV 1 mg/kg, read-out: AUClast iv (area under concentration-time curve 0-24 h).
The mark [4] stands for this setting: IV 1 mg/kg, read-out: tz1/2 iv (terminal half-life) (converted).
Where [5] appears, read: PO 5 mg/kg, read-out: AUClast po (area under concentration-time curve 0-24 h).
Where [6] appears, read: PO 5 mg/kg, read-out: tz1/2 po (terminal half-life) (converted).

Read-outs that look alike come from different tables or passages of the source.

One may read the IC50 as the concentration that gives 50% inhibition. Higher therefore signals lower potency. As a reminder, the bioavailability is the share of a dose that reaches the circulation, judged against a reference dose that is usually intravenous. By clearance is commonly meant a measure of how efficiently the substance is removed, as volume per time.

T1 sequence (Q9UM07 whole entry): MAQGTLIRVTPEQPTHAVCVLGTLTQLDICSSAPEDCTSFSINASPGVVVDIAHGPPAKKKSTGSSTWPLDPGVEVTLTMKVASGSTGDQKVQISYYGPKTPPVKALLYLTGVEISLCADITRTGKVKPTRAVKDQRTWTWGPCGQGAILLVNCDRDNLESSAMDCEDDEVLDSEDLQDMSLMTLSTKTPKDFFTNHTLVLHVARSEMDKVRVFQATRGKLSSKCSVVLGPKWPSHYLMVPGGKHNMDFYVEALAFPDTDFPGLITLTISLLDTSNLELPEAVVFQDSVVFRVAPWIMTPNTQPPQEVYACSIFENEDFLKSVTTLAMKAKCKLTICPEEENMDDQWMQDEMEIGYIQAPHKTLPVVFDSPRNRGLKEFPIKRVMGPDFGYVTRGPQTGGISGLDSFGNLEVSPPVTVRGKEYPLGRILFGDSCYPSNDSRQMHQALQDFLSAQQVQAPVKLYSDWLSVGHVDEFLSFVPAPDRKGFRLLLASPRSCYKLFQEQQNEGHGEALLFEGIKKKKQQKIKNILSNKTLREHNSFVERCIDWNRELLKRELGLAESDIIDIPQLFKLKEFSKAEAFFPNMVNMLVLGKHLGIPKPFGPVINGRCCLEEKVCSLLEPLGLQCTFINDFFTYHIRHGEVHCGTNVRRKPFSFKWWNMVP

Consider `CCn1c(-c2nc3cc(C(=O)N4CCC[C@@H](N)C4)cc(OC)c3n2C)cc2ccsc21` [Compound 3, (R)-(3-aminopiperidin-1-yl)(2-(6-ethyl-6H-thieno[2,3-b]pyrrol-5-yl)-7-methoxy-1-methyl-1H-benzo[d]imidazol-5-yl)methanone], for which, in data set [1], the half-inhibitory concentration (IC50) is 0.2 µM. Further, the bioavailability in data set [2] (IV 1 mg/kg, PO 5 mg/kg) turned out to be 15.6%. Moreover, the AUC(0-t) in data set [2] (setting [3]) worked out at 1200 ng·h/mL. Further, in data set [2] (IV 1 mg/kg), the clearance was 13.2 mL/min/kg and the Vd was 11.2 L/kg. Besides, in data set [2] (setting [4]), the half-life is 9.97 h. In data set [2] (PO 5 mg/kg), the Tmax turned out to be 6 h. Also, the AUC(0-t) in data set [2] (setting [5]) was 934 ng·h/mL.
`CCn1c(-c2nc3cc(C(=O)N4CCC[C@@H](N)C4)cc(OC)c3n2C)cc2cc(C)sc21` [Compound 9, (R)-(3-aminopiperidin-1-yl)(2-(6-ethyl-2-methyl-6H-thieno[2,3-b]pyrrol-5-yl)-7-methoxy-1-methyl-1H-benzo[d]imidazol-5-yl)methanone] showed a half-maximal inhibitory concentration (IC50) in data set [1] of 0.11 µM. In addition, the bioavailability in data set [2] (IV 1 mg/kg, PO 5 mg/kg) turned out to be 41.8%. Moreover, the AUC(0-t) came out at 303 ng·h/mL in data set [2] (setting [3]) and 633 ng·h/mL in data set [2] (setting [5]). Further, the clearance in data set [2] (IV 1 mg/kg) is 43.7 mL/min/kg. Also, the Vd in data set [2] (IV 1 mg/kg) is 22 L/kg. Moreover, the values for the half-life in data set [2] (setting [4]) and in data set [2] (setting [6]) were 5.96 h and 6.33 h, respectively. In data set [2] (PO 5 mg/kg), the Tmax amounted to 6 h.
For the compound `COc1cc(C(=O)N2CCC[C@@H](N)C2)cc2nc(-c3cc4ccsc4n3CC3CC3)n(C)c12` [Compound 18, (R)-(3-aminopiperidin-1-yl)(2-(6-(cyclopropylmethyl)-6H-thieno[2,3-b]pyrrol-5-yl)-7-methoxy-1-methyl-1H-benzo[d]imidazol-5-yl)methanone], 0.036 µM corresponded to half-maximal inhibition in data set [1] (IC50). In addition, in data set [2] (IV 1 mg/kg, PO 5 mg/kg), the bioavailability worked out at 46.6%. Also, the figures for the AUC(0-t) in data set [2] (setting [3]) and in data set [2] (setting [5]) were 1010 ng·h/mL and 2360 ng·h/mL, respectively. The clearance in data set [2] (IV 1 mg/kg) was 16.7 mL/min/kg. In addition, in data set [2] (IV 1 mg/kg), the Vd turned out to be 5.64 L/kg. Besides, the half-life is 3.92 h in data set [2] (setting [4]) and 3.96 h in data set [2] (setting [6]). Besides, the Tmax in data set [2] (PO 5 mg/kg) amounted to 6 h.
In data set [1], `COc1cc(C(=O)N2CCC[C@@H](N)C2)cc2nc(-c3cc4ccsc4n3CC(C)C)n(C)c12` [Compound 20, (R)-(3-aminopiperidin-1-yl)(2-(6-isobutyl-6H-thieno[2,3-b]pyrrol-5-yl)-7-methoxy-1-methyl-1H-benzo[d]imidazol-5-yl)methanone] gave an IC50 of 0.058 µM. Also, the bioavailability in data set [2] (IV 1 mg/kg, PO 5 mg/kg) came to 71.2%. For the same compound, the AUC(0-t) in data set [2] (setting [3]) amounted to 3160 ng·h/mL; in data set [2] (setting [5]) it was 11200 ng·h/mL. Also, the clearance in data set [2] (IV 1 mg/kg) was 5 mL/min/kg. Further, the Vd in data set [2] (IV 1 mg/kg) worked out at 2.86 L/kg. Also, the half-life in data set [2] (setting [4]) was 6.94 h; in data set [2] (setting [6]), 13.2 h. Moreover, the Tmax in data set [2] (PO 5 mg/kg) turned out to be 8 h.
On to `COc1cc(C(=O)N2CCC[C@@H](N)C2)cc2nc(-c3cc4ccsc4n3CC(F)(F)F)n(C)c12` [Compound 21, (R)-(3-aminopiperidin-1-yl)(7-methoxy-1-methyl-2-(6-(2,2,2-trifluoroethyl)-6H-thieno[2,3-b]pyrrol-5-yl)-1H-benzo[d]imidazol-5-yl)methanone], for which the midpoint of inhibition in data set [1], the IC50, lay at 0.055 µM. The bioavailability in data set [2] (IV 1 mg/kg, PO 5 mg/kg) was 33.3%. The AUC(0-t) in data set [2] (setting [3]) was 772 ng·h/mL; in data set [2] (setting [5]), 1290 ng·h/mL. The clearance in data set [2] (IV 1 mg/kg) is 15.3 mL/min/kg. Also, the Vd in data set [2] (IV 1 mg/kg) turned out to be 8.73 L/kg. In addition, the half-life in data set [2] (setting [4]) is 6.93 h; in data set [2] (setting [6]), 4.7 h. Further, in data set [2] (PO 5 mg/kg), the Tmax turned out to be 8 h.
As for `COc1cc(C(=O)N2CCC[C@@H](N)C2)cc2nc(-c3cc4ccsc4n3CC3CCC3)n(C)c12` [Compound 22, (R)-(3-aminopiperidin-1-yl)(2-(6-(cyclobutylmethyl)-6H-thieno[2,3-b]pyrrol-5-yl)-7-methoxy-1-methyl-1H-benzo[d]imidazol-5-yl)methanone], in data set [1], the IC50 was determined as 0.04 µM. Moreover, the bioavailability in data set [2] (IV 1 mg/kg, PO 5 mg/kg) came to 35%. For the same compound, the AUC(0-t) turned out to be 7680 ng·h/mL in data set [2] (setting [3]) and 13500 ng·h/mL in data set [2] (setting [5]). Also, the clearance in data set [2] (IV 1 mg/kg) is 1.67 mL/min/kg. Besides, the Vd in data set [2] (IV 1 mg/kg) was 1.76 L/kg. In addition, the half-life in data set [2] (setting [4]) was 14.6 h; in data set [2] (setting [6]), 12 h. Besides, in data set [2] (PO 5 mg/kg), the Tmax was 6 h.
For `COc1cc(C(=O)N2CCC[C@@H](N)C2)cc2nc(-c3cc4cc(C)sc4n3CC3CC3)n(C)c12` [Compound 23, (R)-(3-aminopiperidin-1-yl)(2-(6-(cyclopropylmethyl)-2-methyl-6H-thieno[2,3-b]pyrrol-5-yl)-7-methoxy-1-methyl-1H-benzo[d]imidazol-5-yl)methanone], inhibition in data set [1] was half-maximal at 0.025 µM (IC50). For the same compound, the bioavailability in data set [2] (IV 1 mg/kg, PO 5 mg/kg) stood at 31.2%. For the same compound, the AUC(0-t) in data set [2] (setting [3]) came out at 887 ng·h/mL; in data set [2] (setting [5]), 1380 ng·h/mL. The clearance in data set [2] (IV 1 mg/kg) is 18 mL/min/kg. Further, the Vd in data set [2] (IV 1 mg/kg) is 11.6 L/kg. For the same compound, the half-life is 7.9 h in data set [2] (setting [4]) and 7.52 h in data set [2] (setting [6]). The Tmax in data set [2] (PO 5 mg/kg) was 6 h.

Values taken from US20200407370A1, “PEPTIDYLARGININE DEIMINASE INHIBITOR AND USE THEREOF” (Nanjing Transthera Biosciences Co., Ltd., priority 2018, published 2020).
